In brackets after ≈: the same amount, converted by molar mass. Read-outs that look alike come from different tables or passages of the source.
Tests used:
Format in all cases: cell-based
[1] = test system: Streptococcus pneumoniae 1016; assay: MIC, microtiter broth dilution (NCCLS M100-S14), S. pneumoniae 1016 (susceptible)
Summary of the method: (§1)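 Stock solutions of 40 mg/ml in DMSO were used. MIC values came from microtiter-tray broth dilution following NCCLS M100-S14 guidelines.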

[2] = test system: Streptococcus pneumoniae 1175; details: microtiter broth dilution
Summary of the method: as §1

[3] = test system: Streptococcus pneumoniae 1095; details: microtiter broth dilution
Summary of the method: as §1

[4] = test system: Haemophilus influenzae 1218; assay: MIC, microtiter broth dilution (NCCLS M100-S14), H. influenzae 1218 (susceptible)
Summary of the method: as §1

[5] = test system: Streptococcus pyogenes 1079; assay: MIC, microtiter broth dilution (NCCLS M100-S14), S. pyogenes 1079 (ermB)
Summary of the method: as §1

[6] = S. pneumoniae 1016 (susceptible)
[7] = H. influenzae 1218 (susceptible)

SMILES	MIC S. pneumo. 1016 ([1]; Streptococcus pneumoniae 1016)	MIC S. pneumo. 1175 ([2]; Streptococcus pneumoniae 1175)	MIC S. pneumo. 1095 ([3]; Streptococcus pneumoniae 1095)	MIC H. influenzae 1218 ([4]; Haemophilus influenzae 1218)	MIC S. pyogenes 1079 ([5]; Streptococcus pyogenes 1079)	MIC S. pneumo. 1016 [1, 6]	MIC S. pneumo. 1175 ([2]; S. pneumoniae 1175 (mefA))	MIC S. pneumo. 1095 ([3]; S. pneumoniae 1095 (ermB))	MIC H. influenzae 1218 [4, 7]	MIC S. pyogenes 1079 ([5]; S. pyogenes 1079 (ermB))
CCC1OC(=O)C(C)C(=O)C(C)C(OC2OC(C)CC(N(C)C)C2O)C(C)(OC)CC(C)C(=O)C(C)C2N(CC3CN(C(=O)c4cccc(C#N)c4)C3)C(=O)OC12C (stereo not shown) [4.06]	0.02 µg/mL (≈ 0.0247 µM)	0.39 µg/mL (≈ 0.481 µM)	12.5 µg/mL (≈ 15.4 µM)	3.12 µg/mL (≈ 3.85 µM)	>100.00 µg/mL					
CCC1OC(=O)C(C)C(=O)C(C)C(OC2OC(C)CC(N(C)C)C2O)C(C)(OC)CC(C)C(=O)C(C)C2N(C3CCN(Cc4cccc5ncccc45)C3)C(=O)OC12C [Example 9.02, 3-descladinosyl-11,12-dideoxy-6-O-methyl-3-oxo-12,11-(oxycarbonyl-(1-((quinolin-5-yl)-methyl)-(R)-pyrrolidin-3-yl)-imino)-erythromycin A]						<0.06 µg/mL	0.12 µg/mL (≈ 0.146 µM)	<0.06 µg/mL	0.5 µg/mL (≈ 0.608 µM)	8 µg/mL (≈ 9.72 µM)
CCC1OC(=O)C(C)C(=O)C(C)C(OC2OC(C)CC(N(C)C)C2O)C(C)(OC)CC(C)C(=O)C(C)C2N(CC3CCN(C(=O)c4cccc5cccnc45)C3)C(=O)OC12C (stereo not shown) [13.11]						<0.06 µg/mL	4 µg/mL (≈ 4.7 µM)	16 µg/mL (≈ 18.8 µM)	4 µg/mL (≈ 4.7 µM)	>64.00 µg/mL
CCC1OC(=O)C(C)C(=O)C(C)C(OC2OC(C)CC(N(C)C)C2O)C(C)(OC)CC(C)C(=O)C(C)C2N(CC3CN(C(=O)c4cnn5ccccc45)C3)C(=O)OC12C (stereo not shown) [4.35]	<0.06 µg/mL	0.12 µg/mL (≈ 0.145 µM)	1 µg/mL (≈ 1.21 µM)	1 µg/mL (≈ 1.21 µM)	>64.00 µg/mL					
CCC1OC(=O)C(C)C(=O)C(C)C(OC2OC(C)CC(N(C)C)C2O)C(C)(OC)CC(C)C(=O)C(C)C2N(C3CN(S(=O)(=O)c4ccc5ccccc5c4)C3)C(=O)OC12C (stereo not shown) [Example 3.91, 3-descladinosyl-11,12-dideoxy-4-O-methyl-3-oxo-12,11-(oxycarbonyl-(1-(naphthalene-2-sulfonyl)-azetidin-3-yl)-imino)-erythromycin A]	<0.06 µg/mL	<0.06 µg/mL	<0.06 µg/mL	0.12 µg/mL (≈ 0.14 µM)	4 µg/mL (≈ 4.66 µM)					
CCC1OC(=O)C(C)C(=O)C(C)C(OC2OC(C)CC(N(C)C)C2O)C(C)(OC)CC(C)C(=O)C(C)C2N(C3CN(S(=O)(=O)c4ccc(OC)c5nccnc45)C3)C(=O)OC12C (stereo not shown) [Example 3.112, 3-descladinosyl-11,12-dideoxy-6-O-methyl-3-oxo-12,11-(oxycarbonyl-(1-(8-methoxyquinoxaline-5-sulfonyl)-azetidin-3-yl)-imino)erythromycin A]	<0.063 µg/mL	0.25 µg/mL (≈ 0.281 µM)	<0.063 µg/mL	2 µg/mL (≈ 2.25 µM)	0.125 µg/mL (≈ 0.14 µM)					
CCC1OC(=O)C(C)C(=O)C(C)C(OC2OC(C)CC(N(C)C)C2O)C(C)(OC)CC(C)C(=O)C(C)C2N(CC3CCCN3C(=O)c3ccc(-n4cccn4)nc3)C(=O)OC12C.O=CO (stereo not shown) [10.13]						<0.06 µg/mL	0.5 µg/mL	0.5 µg/mL	16 µg/mL	>64.00 µg/mL
CCC1OC(=O)C(C)C(=O)C(C)C(OC2OC(C)CC(N(C)C)C2O)C(C)(OC)CC(C)C(=O)C(C)C2N(C3CCN(Cc4c[nH]c5ncccc45)C3)C(=O)OC12C [Example 9.03, 3-descladinosyl-11,12-dideoxy-6-O-methyl-3-oxo-12,11-(oxycarbonyl-(1-((1H-pyrrolo[2,3-b]pyridin-3-yl)-methyl)-(R)-pyrrolidin-3-yl)-imino)-erythromycin A]						<0.06 µg/mL	0.5 µg/mL (≈ 0.616 µM)	<0.06 µg/mL	0.12 µg/mL (≈ 0.148 µM)	1 µg/mL (≈ 1.23 µM)
CCC1OC(=O)C(C)C(=O)C(C)C(OC2OC(C)CC(N(C)C)C2O)C(C)(OC)CC(C)C(=O)C(C)C2N(CC3CN(C(=O)c4ccc5ncccc5c4)C3)C(=O)OC12C (stereo not shown) [4.33]	<0.06 µg/mL	0.25 µg/mL (≈ 0.299 µM)	1 µg/mL (≈ 1.19 µM)	1 µg/mL (≈ 1.19 µM)	64 µg/mL (≈ 76.5 µM)					
CCC1OC(=O)C(C)C(=O)C(C)C(OC2OC(C)CC(N(C)C)C2O)C(C)(OC)CC(C)C(=O)C(C)C2N(CC3CN(Cc4ccc5nccn5c4)C3)C(=O)OC12C (stereo not shown) [4.25]	<0.06 µg/mL	0.31 µg/mL (≈ 0.382 µM)	0.38 µg/mL (≈ 0.468 µM)	0.62 µg/mL (≈ 0.764 µM)	64 µg/mL (≈ 78.8 µM)					
CCC1OC(=O)C(C)C(=O)C(C)C(OC2OC(C)CC(N(C)C)C2O)C(C)(OC)CC(C)C(=O)C(C)C2N(C3CN(S(=O)(=O)c4cccc5nsnc45)C3)C(=O)OC12C (stereo not shown) [Example 3.06, 3-descladinosyl-11,12-dideoxy-6-O-methyl-3-oxo-12,11-(oxycarbonyl-(1-(benzo[1,2,5]thiadiazole-4-sulfonyl)-azetidin-3-yl)-imino)erythromycin A]	<0.06 µg/mL	<0.06 µg/mL	<0.06 µg/mL	0.12 µg/mL (≈ 0.139 µM)	1 µg/mL (≈ 1.15 µM)					
CCC1OC(=O)C(C)C(=O)C(C)C(OC2OC(C)CC(N(C)C)C2O)C(C)(OC)CC(C)C(=O)C(C)C2N(C3CCN(Cc4cnc5ccccc5c4)C3)C(=O)OC12C (stereo not shown) [Example 9.04, (quinolin-3-yl)methyl]						<0.06 µg/mL	<0.06 µg/mL	<0.06 µg/mL	0.5 µg/mL (≈ 0.608 µM)	32 µg/mL (≈ 38.9 µM)
CCC1OC(=O)C(C)C(=O)C(C)C(OC2OC(C)CC(N(C)C)C2O)C(C)(OC)CC(C)C(=O)C(C)C2N(C3CN(S(=O)(=O)c4ccc(OC)c5ncccc45)C3)C(=O)OC12C (stereo not shown) [Example 3.101, 3-descladinosyl-11,12-dideoxy-6-O-methyl-3-oxo-12,11-(oxycarbonyl-(1-(8-methoxyquinoline-5-sulfonyl)-azetidin-3-yl)-imino)-erythromycin A]	<0.063 µg/mL	<0.063 µg/mL	<0.063 µg/mL	0.125 µg/mL (≈ 0.141 µM)	<0.063 µg/mL					
CCC1OC(=O)C(C)C(=O)C(C)C(OC2OC(C)CC(N(C)C)C2O)C(C)(OC)CC(C)C(=O)C(C)C2N(C3CCN(Cc4cncc5ccccc45)C3)C(=O)OC12C (stereo not shown) [Example 9.10, (isoquinolin-4-yl)methyl]						<0.06 µg/mL	0.25 µg/mL (≈ 0.304 µM)	8 µg/mL (≈ 9.72 µM)	0.5 µg/mL (≈ 0.608 µM)	64 µg/mL (≈ 77.8 µM)
CCC1OC(=O)C(C)C(=O)C(C)C(OC2OC(C)CC(N(C)C)C2O)C(C)(OC)CC(C)C(=O)C(C)C2N(CC3CCCN3S(=O)(=O)c3cccc4cccnc34)C(=O)OC12C (stereo not shown) [10.47]						<0.06 µg/mL	<0.06 µg/mL	0.12 µg/mL (≈ 0.135 µM)	2 µg/mL (≈ 2.25 µM)	64 µg/mL (≈ 72.1 µM)
CCC1OC(=O)C(C)C(=O)C(C)C(OC2OC(C)CC(N(C)C)C2O)C(C)(OC)CC(C)C(=O)C(C)C2N(CC3CCN(Cc4cccc(OC)n4)CC3)C(=O)OC12C (stereo not shown) [15.05]						<0.06 µg/mL	0.5 µg/mL (≈ 0.602 µM)	>64.00 µg/mL	8 µg/mL (≈ 9.63 µM)	>64.00 µg/mL
CC[C@H]1OC(=O)[C@H](C)C(=O)[C@H](C)[C@@H](O[C@@H]2O[C@H](C)C[C@H](N(C)C)[C@H]2O)[C@](C)(OC)C[C@@H](C)C(=O)[C@H](C)[C@H]2N(C3CN(Cc4c(Br)cnc5nccnc45)C3)C(=O)O[C@]12C [Example 1.74, 3-descladinosyl-11,12-dideoxy-6-O-methyl-3-oxo-12,11-(oxycarbonyl-(1-(7-bromopyrido[3,2-b]pyrazine-8-methyl)-azetidin-3-yl)imino)-erythromycin A]	<0.063 µg/mL	<0.063 µg/mL	<0.063 µg/mL	1 µg/mL (≈ 1.12 µM)	0.5 µg/mL (≈ 0.562 µM)					
CCC1OC(=O)C(C)C(=O)C(C)C(OC2OC(C)CC(N(C)C)C2O)C(C)(OC)CC(C)C(=O)C(C)C2N(C3CN(S(=O)(=O)c4ccc(-c5ccc(Cl)nn5)cc4)C3)C(=O)OC12C (stereo not shown) [Example 3.78]	<0.06 µg/mL	<0.06 µg/mL	<0.06 µg/mL	4 µg/mL (≈ 4.35 µM)	64 µg/mL (≈ 69.5 µM)					
CC[C@H]1OC(=O)[C@H](C)C(=O)[C@H](C)[C@@H](O[C@@H]2O[C@H](C)C[C@H](N(C)C)[C@H]2O)[C@](C)(OC)C[C@@H](C)C(=O)[C@H](C)[C@H]2N(CC3(C)CN(Cc4nc5ccccc5[nH]4)C3)C(=O)O[C@]12C.O=CO [6.11]						<0.06 µg/mL	<0.06 µg/mL	0.25 µg/mL	1 µg/mL	>64.00 µg/mL
CCC1OC(=O)C(C)C(=O)C(C)C(OC2OC(C)CC(N(C)C)C2O)C(C)(OC)CC(C)C(=O)C(C)C2N(C3CN(C(=O)c4ccc(-c5noc(C)n5)cc4)C3)C(=O)OC12C (stereo not shown) [Example 2.12]	<0.06 µg/mL	0.25 µg/mL (≈ 0.293 µM)	2 µg/mL (≈ 2.34 µM)	32 µg/mL (≈ 37.5 µM)	>64.00 µg/mL					

Source: patent US7462600B2, “Macrolides” (Pfizer Inc, priority 2004, dated 2008)
